Results: PubChem BioAssay (NCI)
Several values for one entry are separate records, joined by “and”; a condition that tells them apart may be missing. Equal values may be shown once.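 Five concentrations, 48 hours, 96-well plates. The concentration for 50% growth inhibition is given as GI50. At the TGI there is no net growth.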

Legend:
Assay in all cases: NCI tumour cell line growth inhibition, 48 h
HOP-92 NSCLC = test system: HOP-92 NSCLC
COLO 205 colon = test system: COLO 205 colon
NCI-H522 lung = test system: NCI-H522 lung
SK-MEL-5 melanoma = test system: SK-MEL-5 melanoma
HCT-116 colon = test system: HCT-116 colon
NCI-H226 lung = test system: NCI-H226 lung
HCT-15 colon = test system: HCT-15 colon
SF-539 CNS = test system: SF-539 CNS
HCC-2998 colon = test system: HCC-2998 colon
SW-620 colon = test system: SW-620 colon

Compound	GI50 (HOP-92 NSCLC)	TGI (HOP-92 NSCLC)	GI50 (COLO 205 colon)	TGI (COLO 205 colon)	GI50 (NCI-H522 lung)	TGI (NCI-H522 lung) [µM]	GI50 (SK-MEL-5 melanoma)	TGI (SK-MEL-5 melanoma)	GI50 (HCT-116 colon)	TGI (HCT-116 colon) [µM]	GI50 (NCI-H226 lung)	TGI (NCI-H226 lung) [µM]	GI50 (HCT-15 colon)	TGI (HCT-15 colon)	GI50 (SF-539 CNS)	TGI (SF-539 CNS)	GI50 (HCC-2998 colon)	TGI (HCC-2998 colon) [µM]	GI50 (SW-620 colon)	TGI (SW-620 colon)
NC1CCCCC1N.O=S(=O)([O-])CCCN1CCOCC1.O=S(=O)([O-])CCCN1CCOCC1.[Pt+4]	32.4 µM	> 100 µM	10.7 µM	42.8 µM	4.64 µM	20.6	9.83 µM	22.2 µM	4.2 µM	> 100	22.5 µM	> 100	8.4 µM	> 56.6 µM	27.5 µM	> 100 µM	36.3 µM	> 100	1.32 µM	17.1 µM
C=CCN1C=CC(=O)[C@H](O[Si](C)(C)C(C)(C)C)[C@@H]1/C=C/c1ccccc1	7.05 µM	21.1 µM	4.39 µM	16.2 µM	13 µM	28.3	7.33 µM	20 µM	6.96 µM	19.9	17.9 µM	36.9	12.5 µM	25.6 µM	16 µM	30.1 µM	16.2 µM	30.3	14.5 µM	29.3 µM
CC[O-].CC[O-].O=C1C(c2ccccc2)=C([O-])c2ccccc21.O=C1C(c2ccccc2)=C([O-])c2ccccc21.[Ti+4]	> 100 µM	> 100 µM	> 100 µM	> 100 µM	> 100 µM	> 100	> 100 µM	> 100 µM	> 100 µM	> 100	> 100 µM	> 100	> 100 µM	> 100 µM	> 100 µM	> 100 µM	> 100 µM	> 100	> 100 µM	> 100 µM
COc1cc(C(c2cc3c(cc2O)OCO3)N2CCCCC2)cc(OC)c1OC (stereo not drawn)	–	23.1 µM	–	26.6 µM	–	26.7	–	34.6 µM	–	30.4	–	41.6	–	30.8 µM	–	33.9 µM	–	39	–	12 µM
COC(=O)c1c2c(c(C)[n+]([O-])c1C)C(=O)C=C(NCc1ccc(OC)cc1)C2=O	2.35 µM	6.12 µM	0.831 µM	2.45 µM	1.82 µM	5.16	0.607 µM	1.21 µM	2.4 µM	7.08	2.66 µM	7.94	0.962 µM	4.19 µM	1.77 µM	4.36 µM	1.54 µM	4.78	1.08 µM	4.08 µM
C[C@]12CC[C@H](OCCC#N)CC1=CC[C@@H]1C2CC[C@]2(C)/C(=N/OCCC#N)CCC12 (stereo partly drawn)	–	> 64.4 µM	–	> 100 µM	–	> 100	–	> 100 µM	–	> 100	–	> 100	–	> 100 µM	–	> 100 µM	–	> 100	–	> 100 µM
Nc1cc(-c2cccc(OC(F)(F)F)c2)nc2ccc(N3CCCC3)cc12	0.0888 µM and 0.184 µM and 0.0868 µM	18.2 µM and > 100 µM and 74.2 µM	0.041 µM and 0.0391 µM and 0.0357 µM	1.42 µM and 2.61 µM	0.0394 µM and 0.0351 µM and 0.0297 µM	0.986	0.042 µM and 0.0394 µM and 0.0348 µM	0.621 µM and 0.67 µM and 0.361 µM	0.0384 µM and 0.0323 µM and 0.0258 µM	–	0.238 µM and 0.237 µM	> 100	0.0338 µM and 0.0349 µM and 0.0312 µM	11.5 µM and > 100 µM	0.0358 µM and 0.0372 µM and 0.0354 µM	1.24 µM and 1.54 µM and 1.42 µM	0.037 µM and 0.0351 µM and 0.0371 µM	–	0.0435 µM and 0.0413 µM and 0.0366 µM	22.1 µM and > 100 µM
O=S(=O)(c1ccc(N=C2NN=C(c3c[nH]c4ccccc34)CS2)cc1)N1CCOCC1	3.7 µM	> 100 µM	14.7 µM	> 100 µM	> 100 µM	> 100	2.51 µM	16.4 µM	7.35 µM	> 100	7.74 µM	> 100	8.06 µM	> 100 µM	27.7 µM	> 100 µM	24.6 µM	> 100	77.2 µM	> 100 µM
c1cc(OCCN2CCCCC2)ccc1CNc1ccc2nc(CCC3CCCCC3)[nH]c2c1	0.565 µM	2.45 µM	1.76 µM	3.31 µM	1.98 µM	3.94	1.63 µM	3.01 µM	1.64 µM	3.57	1.83 µM	4.29	1.58 µM	3.89 µM	1.57 µM	3.06 µM	2.05 µM	4.28	1.82 µM	3.84 µM
O=CN1N=C(c2ccc(Cl)cc2)CC1c1cccc(Nc2ccnc3cc(Cl)ccc23)c1 (stereo not drawn)	1.45 µM	> 100 µM	1.43 µM	4.51 µM	1.12 µM	11.9	0.54 µM	1.93 µM	1.2 µM	4.02	1.87 µM	57.7	1.36 µM	> 100 µM	1.69 µM	5.03 µM	3.12 µM	35.3	1.61 µM	24.2 µM
